Data: patent US20090211893A1, “Photo-Activatable Amino Acids” (priority 2005, published 2009)

How the values were obtained:
COS7 cells [1] = test: Incorporation of [1-14C]photo-Met and [3H]Phe into newly synthesized protein; assay type: cell-based, monkey
Method: Cells were washed 6 times with PBS and lysed in 0.5% Triton X-100, 0.2% sodium deoxycholate. Aggregated DNA was removed, protein was precipitated^43, the pellet was redissolved in 0.3 ml 0.5% SDS and subjected to a second round of precipitation. […] The dried pellet was redissolved and processed for scintillation counting (data of Table 1 and FIG. 4b) or processed as follows for amino acid analysis (FIG. 2b): the pellet was dissolved in 600 µl 50 mM NH4HCO3, 0.5% SDS, 3 mM CaCl2 containing 0.25 mg pronase (Roche) followed by incubation at 37° C. for 20 h. The sample was lyophilized, dissolved in 600 μl of 7 N HCl containing 4 mg of glutamic acid and 6 mg of photo-Met and heated to 70° C. for 24 h. A Dowex 50WX8 column (1.6×24 cm) was prepared^18 and equilibrated with 0.1 M sodium citrate pH 3.8. The sample was concentrated to 50 μl in a speed-vak, diluted to 1 ml with 0.1 M sodium citrate pH 3.8, and loaded onto the column. The column was eluted at 24° C. at a flow rate of 20 ml/h with 70 ml 0.1 M sodium citrate pH 3.8, 26 ml 0.1 M sodium citrate pH 4.3 and 100 ml of 0.1 M sodium citrate pH 4.5. Fractions of 3 ml were collected and assayed for absorbance at 350 nm, radioactivity by scintillation counting, and amino groups by the fluorescamine method^44.
To decrease competition for activation by tRNA synthetases, media devoid of the structurally related amino acids Leu and Met (LM-2) or, for some experiments, devoid of Leu, Met, Ile and Val (LM-4) were used. Proteins incorporated radioactivity as shown by autoradiography after separation by SDS-PAGE (FIG. 2a, lane 3). […] 88% of the radioactivity in the labeled proteins was intact [1-^14C]photo-Met (FIG. 2b, photo-Met). A small peak eluting slightly earlier than glutamic acid (FIG. 2 B, Glu) contained 7% of the radioactivity. This peak was also observed if free [1-^14C]photo-Met was heated with HCl under the conditions of the hydrolysis (data not shown) and therefore represents a product of thermal decomposition of the amino acid. Under the conditions employed, radioactivity originating from degradation/re-integration would be expected to appear as aspartate and glutamate (oxidative release of [^14C]CO2, metabolism via pyruvate carboxylase, citric acid cycle and transamination to Gln and Asn that will be hydrolyzed to Glu and Asp by hot HCl). However, no radioactivity was incorporated via this pathway. We conclude that at least 95% of incorporated radioactivity represents intact [1-^14C]photo-Met. To obtain quantitative data on the frequency of incorporation of photo-Met into newly synthesized protein, we performed co-labeling with [1-^14C]photo-Met and [^3H]Phe. […] Two in three hundred amino acids in newly synthesized protein will be photo-Met.

COS7 cells [2] = test: Competition of [1-14C]photo-Met incorporation by natural amino acids; assay type: cell-based, monkey; details: 1.7 mM [1-14C]photo-Met, 3 mM competing amino acid
Method: FIG. 4: Specificity of incorporation and cross-linking by photo-Met and photo-Leu. COS7 cells were transfected with HA-tagged human PGRMC1 and were grown in LM-4 in the absence or presence of photo-Leu (A) or photo-Met (B) with addition of 3 mM of the indicated competing amino acid. cross-linked products formed after UV-irradiation were detected by SDS-PAGE followed by western blotting against the HA-epitope. (C) COS7 cells were grown in the presence of 1.7 mM [1-^14C]photo-Met, a constant trace amount of [^3H]Phe and 3 mM of competing unlabeled amino acids as indicated in the legend. Protein was precipitated and protein-bound radioactivity was determined by scintillation counting. […] The control value obtained in the absence of competing amino acid (con) is set to 100. Data are average±SD of triplicate determinations.
COS7 cells were grown for 20 h in LM-2 containing radiolabeled amino acids ([1-^14C]photo-Met and [^3H]Phe). Cells were washed 6 times with PBS and lysed in 0.5% Triton X-100, 0.2% sodium deoxycholate. Aggregated DNA was removed, protein was precipitated^43, the pellet was redissolved in 0.3 ml 0.5% SDS and subjected to a second round of precipitation. […] Fractions of 3 ml were collected and assayed for absorbance at 350 nm, radioactivity by scintillation counting, and amino groups by the fluorescamine method^44. […]

For `CC1(CCC(N)[14C](=O)O)N=N1` (racemic) [[1-^14C]photo-Met, DL-[1-^14C]-2-amino-5,5′-azi-hexanoic acid], the “Relative frequency (of total amino acids in newly synthesized protein)” value (COS7 cells [1]; COS7 cells grown 22 h in LM-2) was 0.7%, the Incorporated amino acid (COS7 cells [1]; COS7 cells grown 22 h in LM-2, average ± SD of triplicate) was 0.50 ± 0.05 nmol/dish and the Protein-bound activity (COS7 cells [1]; COS7 cells grown 22 h in LM-2 with [3H]Phe and [1-14C]photo-Met, average ± SD of triplicate) was 2.34 ± 0.23 nCi/dish. The “frequency of incorporation relative to that of phenylalanine” value (COS7 cells [1]; co-labeling with [1-14C]photo-Met and [3H]Phe) was 14%, the “competition of incorporation by Met and Leu” value (COS7 cells [2]) was “strongly competed” and the “effect of Val and Ile on incorporation” value (COS7 cells [2]) was “slightly stimulated incorporation”.
